Reference: patent publication US4245107A, “Cephalosporin derivatives and process for preparing the same” (Asahi Kasei Kogyo Kabushiki Kaisha, priority 1974, dated 1981)
Values after ≈ are worked out from the molar mass of the structure shown. Where two headings read alike, the source gives them in different places.

Assays:
Type in all cases: cell-based
[1] = test system: Staphylococcus aureus, ATCC 6538 P; assay: MIC against Staphylococcus aureus ATCC 6538 P
[2] = test system: Staphylococcus aureus, MS 27; assay: MIC against Staphylococcus aureus MS 27
Escherichia coli, NIHJ = assay: MIC against Escherichia coli NIHJ
Escherichia coli, W 3630 = assay: MIC against Escherichia coli W 3630
[3] = test system: Salmonella enteritidis gaertner; assay: MIC against Salmonella enteritidis gaertner
[4] = test system: Klebsiella pneumoniae, ATCC 10031; assay: MIC against Klebsiella pneumoniae ATCC 10031
Shigella sonnei E 33 = assay: MIC against Shigella sonnei E 33
Proteus rettgeri, ACR = assay: MIC against Proteus rettgeri ACR; conditions: for MIC: Providencia rettgeri
Pseudomonas aeruginosa = assay: MIC against Pseudomonas aeruginosa (strain not given)
Proteus vulgaris, OX 19 = assay: MIC against Proteus vulgaris OX 19; conditions: for minimum inhibitory concentration (MIC): Table 3
Escherichia coli, RGN 14 = assay: MIC against Escherichia coli RGN 14; conditions: Table 3
Enterobacter 0655 = assay: MIC against Enterobacter 0655
[5] = test system: Pseudomonas aeruginosa, IAM 1095; assay: MIC against Pseudomonas aeruginosa IAM 1095
[6] = test system: Escherichia coli, RGN 238; assay: MIC against Escherichia coli RGN 238; conditions: Table 3
[7] = test system: Gram-positive bacteria and Gram-negative bacteria; assay: antimicrobial / bacterium-inhibiting activity (in words)
[8] = Table 1, read-out: minimum inhibitory concentration (MIC)
[9] = Table 3, read-out: minimum inhibitory concentration (MIC)

## CC(=O)OCC1=C(C(=O)O)N2C(=O)C(NC(=O)C[S+]([O-])c3cccs3)C2SC1 (single isomer, unassigned) [Comparative Example, 7-(2-thienylsulfinylacetamido)cephalosporanicacid, reference compound]
[1]; Table 1, ATCC 6538 P
  minimum inhibitory concentration (MIC): 1.6 µg/mL (≈ 3.6 µM)
[2]; Table 1, ATCC MS 27
  minimum inhibitory concentration (MIC): 6.3 µg/mL (≈ 14.2 µM)
Escherichia coli, NIHJ; Table 1
  minimum inhibitory concentration (MIC): 6.3 µg/mL (≈ 14.2 µM)
Escherichia coli, W 3630; Table 1
  minimum inhibitory concentration (MIC): 50 µg/mL (≈ 112 µM)
[3]; Table 1
  minimum inhibitory concentration (MIC): 12.5 µg/mL (≈ 28.1 µM)
[4]; Table 1
  minimum inhibitory concentration (MIC): 6.3 µg/mL (≈ 14.2 µM)
Shigella sonnei E 33; Table 1
  minimum inhibitory concentration (MIC): 25 µg/mL (≈ 56.2 µM)
Proteus rettgeri, ACR; Table 1
  minimum inhibitory concentration (MIC): 100 µg/mL (≈ 225 µM)
Pseudomonas aeruginosa; Table 1
  minimum inhibitory concentration (MIC): 100 µg/mL (≈ 225 µM)

## CC(=O)OCC1=C(C(=O)O)N2C(=O)C(NC(=O)C[S+]([O-])c3cccs3)C2SC1 (single isomer, unassigned) [Example 1, 7-(2-thienylsulfinylacetamido)cephalosporanic acid]
[1]; ATCC6538, Table 1, ATCC 6538 P, read-out: minimum inhibitory concentration (MIC)
  MIC: 0.8 µg/mL (≈ 1.8 µM)
[2]; Table 1, ATCC MS 27
  minimum inhibitory concentration (MIC): 1.6 µg/mL (≈ 3.6 µM)
Escherichia coli, NIHJ; Table 1
  minimum inhibitory concentration (MIC): 1.6 µg/mL (≈ 3.6 µM)
[3]; Table 1
  minimum inhibitory concentration (MIC): 1.6 µg/mL (≈ 3.6 µM)
[4]; Table 1
  minimum inhibitory concentration (MIC): 0.8 µg/mL (≈ 1.8 µM)
Shigella sonnei E 33; Table 1
  minimum inhibitory concentration (MIC): 3.1 µg/mL (≈ 6.97 µM)
Proteus rettgeri, ACR; [8]
  MIC: 100 µg/mL (≈ 225 µM)
Pseudomonas aeruginosa; [8]
  MIC: 100 µg/mL (≈ 225 µM)

## CC(=O)OCC1=C(C(=O)O)N2C(=O)C(NC(=O)C[S+]([O-])c3ccccc3)C2SC1 (single isomer, unassigned) [Example 19, 7-(phenylsulfinylacetamido)cephalosporanic acid]
[1]; Table 3, 6538 P
  minimum inhibitory concentration (MIC): 0.2
[2]; Table 3, MS 27
  minimum inhibitory concentration (MIC): 0.8
Escherichia coli, NIHJ; Table 3
  minimum inhibitory concentration (MIC): 1.6
[3]; Table 3
  minimum inhibitory concentration (MIC): 3.2
[4]; Table 3
  minimum inhibitory concentration (MIC): 1.6
Shigella sonnei E 33; Table 3
  minimum inhibitory concentration (MIC): 6.3
Proteus rettgeri, ACR; [9]
  MIC: 100 µg/mL (≈ 228 µM)
Proteus vulgaris, OX 19
  minimum inhibitory concentration (MIC): 1.6
Escherichia coli, RGN 14
  minimum inhibitory concentration (MIC): 12.5
Enterobacter 0655; [9]
  MIC: 100 µg/mL (≈ 228 µM)
[5]; IAM1095, Table 3, read-out: minimum inhibitory concentration (MIC)
  MIC: 100 µg/mL (≈ 228 µM)

## CC(=O)OCC1=C(C(=O)O)N2C(=O)C(NC(=O)C[S+]([O-])c3ccccc3)C2SC1 (single isomer, unassigned) [comparative product, 7-(Phenylsulfinylacetamido)cephalosporanic acid, reference compound]
[1]; Table 3, 6538 P
  minimum inhibitory concentration (MIC): 25
[2]; Table 3, MS 27
  minimum inhibitory concentration (MIC): 50
Escherichia coli, NIHJ; Table 3
  minimum inhibitory concentration (MIC): 100
Escherichia coli, W 3630; Table 3
  minimum inhibitory concentration (MIC): 100
[3]; Table 3
  minimum inhibitory concentration (MIC): 50
[4]; Table 3
  minimum inhibitory concentration (MIC): 50
Shigella sonnei E 33; Table 3
  minimum inhibitory concentration (MIC): 100
Proteus rettgeri, ACR; Table 3
  minimum inhibitory concentration (MIC): 100
Proteus vulgaris, OX 19
  minimum inhibitory concentration (MIC): 100
Escherichia coli, RGN 14
  minimum inhibitory concentration (MIC): 100
[6]
  minimum inhibitory concentration (MIC): 100
Enterobacter 0655; Table 3
  minimum inhibitory concentration (MIC): 100
[5]; Table 3
  minimum inhibitory concentration (MIC): 100

## Cc1nnc(SCC2=C(C(=O)O)N3C(=O)C(NC(=O)C[S+]([O-])c4cccs4)[C@H]3SC2)s1 (stereo partly drawn) [Example 3, 7-(2-thienylsulfinylacetamido)-3-(5-methyl-1,3,4-thiadiazol-2-ylthiomethyl)-3-cephem-4-carboxylic acid]
[7]; versus product similarly derived from the compound of the Comparative Example
  minimum inhibitory concentration (MIC), in words: much superior

## Cn1nnnc1SCC1=C(C(=O)[O-])N2C(=O)C(NC(=O)C[S+]([O-])c3cccs3)[C@H]2SC1.[Na+] (stereo partly drawn) [Example 4, sodium 7-(2-thienylsulfinylacetamido)-3-(1-methyl-1H-tetrazol-5-ylthiomethyl)-3-cephem-4-carboxylate]
[7]; versus product derived in the same manner from 2-thienylsulfinylacetic acid having [α]D^22° of -9.2°
  bacterium-inhibiting activity: much superior

## O=C(C[S+]([O-])c1cccs1)NC1C(=O)N2C(C(=O)[O-])=C(C[n+]3ccccc3)CSC12 (stereo not drawn) [Example 6, 7-(2-thienylsulfinylacetamido)-3-(1-pyridiniummethyl)-3-cephem-4-carboxylate]
[7]
  antimicrobial activity: excellent

## CC1=C(C(=O)O)N2C(=O)C(NC(=O)C[S+]([O-])c3cccs3)[C@H]2SC1 (stereo partly drawn) [Example 7, 7-(2-thienylsulfinylacetamido)-3-methyl-3-cephem-4-carboxylic acid]
[7]; versus product from 2-thienylsulfinylacetic acid having a negative specific rotary power
  microbial activity: much superior

## CC(=O)OCC1=C(C(=O)O)N2C(=O)C(NC(=O)C[S+]([O-])c3ccncc3)C2SC1 (stereo not drawn) [Example 10, 7-(4pyridylsulfinylacetamido)cephalosporanic acid]
[1]; ATCC6538, Table 2, ATCC 6538 P, read-out: MIC
  MIC: 0.4 µg/mL (≈ 0.91 µM)
[2]; MS27, Table 2, MS 27
  MIC: 1.6 µg/mL (≈ 3.64 µM)
Escherichia coli, NIHJ; Table 2
  MIC: 0.8 µg/mL (≈ 1.82 µM)
Escherichia coli, W 3630; W3630, Table 2
  MIC: 12.5 µg/mL (≈ 28.4 µM)
[3]; Salmonella enterica, ENTERITIDIS, Table 2
  MIC: 3.2 µg/mL (≈ 7.28 µM)
[4]; ATCC10031, Table 2
  MIC: 0.8 µg/mL (≈ 1.82 µM)
Shigella sonnei E 33; Shigella sonnei, E33, Table 2
  MIC: 6.3 µg/mL (≈ 14.3 µM)
Proteus rettgeri, ACR; Table 2, read-out: MIC
  MIC: 100 µg/mL (≈ 228 µM)
Proteus vulgaris, OX 19; OX19, Table 2
  MIC: 1.6 µg/mL (≈ 3.64 µM)
